Tested on: hVEGF-A-#33 cell line
Assay: Screening for diversification-promoting compounds by FCM (hIgG+_hVEGF-A− population)
Assay type: cell-based, chicken
Details: hVEGF-A-#33 cells expressing human IgG, versus negative control CS(−)
Procedure: Frozen stocks of the hVEGF-A #33 cell line and the hVEGF-A #44 cell line (3.0×10^6 cells) were each awaken with a CS(-) medium, using a 25 cm^2 Flask (Corning, 430639), and were then cultured in a CO2 incubator (SANYO CO2 Incubator MCO-20AIC, 39.5° C., 5% CO2). On the following day, the cells were seeded on a 6-well dish (Nunc, 140675) to a cell density of 1.0×10^4 cells/mL (wherein the cell concentration and the survival rate were measured using CASY cell counter (Nepa Gene)). The cells were cultured in a CS(+) medium, in the presence or absence of a PI3Kα inhibitor ([…]: 10 μM, PI3Kα Inhibitor 2: 500 nM). Moreover, after the cells had been cultured for 2 days, individual samples were subcultured under the same conditions to result in a cell density of 1.0×10^4 cells/mL. Further, after completion of the culture for 3 days, individual samples were subcultured under the same conditions to result in a cell density of 6.0×10^4 cells/mL, and the culture was continued. After completion of the culture for 2 days (Day 7 of the culture), individual samples were centrifuged to remove a supernatant, and the residue was then suspended in a CS(+) medium supplemented with 1 μM FK-506 (hereinafter referred to as a “CS/FK medium”). The suspension was centrifuged again to remove a supernatant. This washing step was carried out repeatedly twice, and individual samples were then suspended in a CS/FK medium supplemented with AF647-labeled hVEGF-A (10 nM) and 2,000-fold diluted Goat Anti-Human IgG-PE. The light was shielded, and the obtained suspension was then reacted at 4° C. for 30 min. After completion of the staining, the reaction mixture was washed with a CS/FK medium twice, and each sample was then suspended in the CS/FK medium. Thereafter, using FACS Aria Fusion (BD), FCM and single cell sorting was carried out. Dead cells were removed using FSC-SSC plot. A plot, in which the vertical axis indicated AF647 (AF647-labeled hVEGF-A) and the longitudinal axis indicated PE (Goat Anti-Human IgG-PE), was developed, and the percentage of PE+(hIgG+)/AF647-(hVEGF-A-) cells was then calculated. In order to make a comparison regarding the number of cells with improved antigen-binding ability according to Affinity Maturation under individual conditions, Affinity Maturation Gate was established according to the following criteria. First, the plot was converted to a contour plot in FCM analysis, and a trapezoid gate having an inclination that was in parallel with the contour of a population in which the most cells were gathered (hereinafter referred to as a “main population”) was established. […] At that time, the vertex of the trapezoid gate was set to be overlapped with the mean value MFI of the main population, and then, a cell population having low antigen-binding ability and a cell population having a low expression level of antibody were set not to enter the gate. The percentage of clones with improved antigen-binding ability was calculated by counting the number of cells existing in this Affinity Maturation Gate and then dividing the obtained value by the total number of the analyzed cells. […]

Row | SMILES | percentage of hIgG+_hVEGF-A− cell population (diversification-promoting effect)
1 | O=C1NC(=O)/C(=C/c2ccc3nccc(-c4ccncc4)c3c2)S1 [GSK1059615] | increased in comparison to the negative control (CS(−))
2 | N#Cc1ccc(-c2c(-c3ncn[nH]3)sc(N3CCOCC3)c2C#N)c(F)c1 [PF-4989216] | increased in comparison to the negative control (CS(−))
3 | Oc1cccc(-c2nc(N3CCOCC3)c3oc4ncccc4c3n2)c1 [PI-103] | increased in comparison to the negative control (CS(−))
4 | COc1ccc2c(c1OC)N=C(NC(=O)c1cccnc1)N1CCN=C21 [PIK-90] | increased in comparison to the negative control (CS(−))
